From US10457707B2, “Substituted urea depsipeptide analogs as activators of the CLPP endopeptidase” (priority 2015, dated 2019)
≈ marks a conversion by molar mass, not a printed value. *1 amine or outer side, *2 acyl side, *3 side chain or, on linkers, in order; H or OH if unused. Where a SMILES comes first, the peptide text is derived from it. Bridges are numbered along the chain shown (N, C = ends). [ ]: non-standard residue; d: D form. The star is where a group is joined. ξ: configuration not given here. Phe(3,5-F2) = N[C@@H](Cc1cc(F)cc(F)c1)C(=O)O; NMepT = CN[C@H](C(=O)O)[C@@H](C)OP(=O)(O)O; NH(4-OCF3-phenyl) = FC(F)(F)Oc1ccc(N*)cc1; Pro(4S-Me) = C[C@@H]1CN[C@H](C(=O)O)C1; Pro(4R-Me) = C[C@H]1CN[C@H](C(=O)O)C1; ξPro(4R-OH) = O=C(O)C1C[C@@H](O)CN1; ξPro(4R-Me) = C[C@H]1CNC(C(=O)O)C1; NH(4-Et-phenyl) = CCc1ccc(N*)cc1; NMeT = CN[C@H](C(=O)O)[C@@H](C)O; NH(4-Me-phenyl) = Cc1ccc(N*)cc1; aThr = C[C@H](O)[C@H](N)C(=O)O; NMeA = CN[C@@H](C)C(=O)O; CO = O=C([*:1])[*:2]

What was measured:
[1] = system: Streptococcus pneumoniae, R6; assay: Minimal inhibitory concentration assay; type: cell-based; settings: read-out: Minimal Inhibitory Concentrations S. pneumoniae R6
Summary of the method: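 Microbroth dilution with two-fold serial compound dilutions in broth, incubated aerobically overnight at 37° C. MIC taken as the lowest concentration preventing bacterial growth.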

Sa-ClpP = biological target: T1, Sa-ClpP (Staphylococcus aureus, UniProt Q2G036); assay: Casein-BODIPY assay, second described ClpP activation method (EnzCheck Protease Assay, 384 well); type: biochemical, S. aureus; settings: values marked †: second described ClpP activation assay
T1 construct: made in house; host or cells: E. coli BL21(DE3)
T1 sequence (Q2G036 1-195): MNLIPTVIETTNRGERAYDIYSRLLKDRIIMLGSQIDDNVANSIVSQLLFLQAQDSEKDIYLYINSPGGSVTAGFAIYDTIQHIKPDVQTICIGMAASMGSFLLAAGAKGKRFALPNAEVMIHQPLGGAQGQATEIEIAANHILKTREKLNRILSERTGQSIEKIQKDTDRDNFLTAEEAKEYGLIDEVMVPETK
Protocol: Alternatively, the assay was carried out using EnzCheck Protease Assay (Molecular Probes, Catalog # E6638). The assay was performed in black 384 well, flat bottom, low volume plates (Greiner Bio-One, Monroe, N.C., catalog #784076). 10 μL of Tris*HCl buffer, pH 8.0 with 0.01% Triton X-100 was pipetted into each well using a Well-Mate (Thermo Scientific, Waltham, Mass.). 0.4 μL test compounds or controls (2% DMSO v/v) were added to each well using a Biomek FX liquid handling robot (Beckman Coulter, Indianapolis Ind.). After addition of test compounds and controls, 10 μL of master mix containing 2 μM Sa-ClpP and 2 μM substrate (Bodipy-FL labeled casein) in Tris*HCl buffer, pH 8.0 with 0.01% (v/v) Triton X-100, was pipetted into each well. All assays were performed in triplicate, under linear velocity conditions. Increase in fluorescent signal following activation of Sa-ClpP by test compounds and controls was measured over time period of 30 mins using filters with excitation at 485±15 nm and emission at 520±25 nm on a PHERAstar FS Multilabel reader (BMG, Cary, N.C.). […] Data analysis was done by measuring rate of casein degradation over time (slopes). Computed degradation rates (slopes) were normalized to positive (ADEP4) or negative (DMSO) controls. Using nonlinear regression curve fitting EC50 values and % activation were determined using the equation “log [agonist] vs. Response-variable slope (four parameters)-symmetrical” in the program Prism 6 (GraphPad Software, La Jolla, Calif. USA, www.graphpad.com).

physchem = settings: 22 °C, aqueous buffer, kinetic from dmso stock

| SMILES | MIC [1] [µM] | EC50 (Sa-ClpP) [nM] | solubility (physchem) [µM] |
| --- | --- | --- | --- |
| CCc1ccc(NC(=O)N[C@@H](Cc2cc(F)cc(F)c2)C(=O)N[C@@H]2C(=O)N3CCC[C@H]3C(=O)N(C)[C@@H]([C@@H](C)O)C(=O)N[C@@H](C)C(=O)N3C[C@H](C)C[C@H]3C(=O)O[C@H]2C)cc1 [Compound 42, (S)-3-(3,5-difluorophenyl)-2-(3-(4-ethylphenyl)ureido)-N-((2R,6S,9S,11aS,17S,18S,20aS)-9-((R)-1-hydroxyethyl)-2,6,10,18-tetramethyl-5,8,11,16,20-pentaoxohexadecahydro-1H,5H,16H-dipyrrolo[2,1-c:2′,1′-l][1]oxa[4,7,10,13]tetraazacyclohexadecin-17-yl)propanamide] ({NH(4-Et-phenyl)-CO}-[Phe(3,5-F2)][aThr]P[NMeT]A[Pro(4R-Me)]; ester 2-C) | 0.01 (≈ 0.00826 µg/mL) | 250 ± 30 |  |
| Cc1ccc(NC(=O)N[C@@H](Cc2cc(F)cc(F)c2)C(=O)N[C@@H]2C(=O)N3CCC[C@H]3C(=O)N(C)[C@@H]([C@@H](C)OP(=O)(O)O)C(=O)N[C@@H](C)C(=O)N3C[C@@H](C)C[C@H]3C(=O)O[C@H]2C)cc1 [Compound 188, (R)-1-((2S,6S,9S,11aS,17S,18S,20aS)-17-((S)-3-(3,5-difluorophenyl)-2-(3-(p-tolyl)ureido)propanamido)-2,6,10,18-tetramethyl-5,8,11,16,20-pentaoxohexadecahydro-1H,5H,16H-dipyrrolo[2,1-c:2′,1′-l][1]oxa[4,7,10,13]tetraazacyclohexadecin-9-yl)ethyl dihydrogen phosphate] ({NH(4-Me-phenyl)-CO}-[Phe(3,5-F2)][aThr]P[NMepT]A[Pro(4S-Me)]; ester 2-C) | 13 |  | 107 ± 2.7 |
| Cc1ccc(NC(=O)N[C@@H](Cc2cc(F)cc(F)c2)C(=O)N[C@@H]2C(=O)N3C[C@H](O)CC3C(=O)N(C)[C@@H](C)C(=O)N[C@@H](C)C(=O)N3C[C@H](C)CC3C(=O)O[C@H]2C)cc1 (stereo partly drawn) [Compound 31, (S)-3-(3,5-difluorophenyl)-N-((2S,6S,9S,11aS,13R,17S,18S,20aS)-13-hydroxy-2,6,9,10,18-pentamethyl-5,8,11,16,20-pentaoxohexadecahydro-1H,5H,16H-dipyrrolo[2,1-c:2′,1′-l][1]oxa[4,7,10,13]tetraazacyclohexadecin-17-yl)-2-(3-(p-tolyl)ureido)propanamide] ({NH(4-Me-phenyl)-CO}-[Phe(3,5-F2)][aThr][ξPro(4R-OH)][NMeA]A[ξPro(4R-Me)]; ester 2-C) | 0.195 (≈ 0.156 µg/mL) | 370 ± 30 |  |
| C[C@@H]1C[C@H]2C(=O)O[C@@H](C)[C@H](NC(=O)[C@H](Cc3cc(F)cc(F)c3)NC(=O)Nc3ccc(OC(F)(F)F)cc3)C(=O)N3CCC[C@H]3C(=O)N(C)[C@@H]([C@@H](C)O)C(=O)N[C@@H](C)C(=O)N2C1 [Compound 41, (S)-3-(3,5-difluorophenyl)-N-((2R,6S,9S,11aS,17S,18S,20aS)-9-((R)-1-hydroxyethyl)-2,6,10,18-tetramethyl-5,8,11,16,20-pentaoxohexadecahydro-1H,5H,16H-dipyrrolo[2,1-c:2′,1′-l][1]oxa[4,7,10,13]tetraazacyclohexadecin-17-yl)-2-(3-(4-(trifluoromethoxy)phenyl)ureido)propanamide] ({NH(4-OCF3-phenyl)-CO}-[Phe(3,5-F2)][aThr]P[NMeT]A[Pro(4R-Me)]; ester 2-C) | 0.02 (≈ 0.0176 µg/mL) | 310 ± 10 |  |
| CCc1ccc(NC(=O)N[C@@H](Cc2cc(F)cc(F)c2)C(=O)N[C@@H]2C(=O)N3CCC[C@H]3C(=O)N(C)[C@@H]([C@@H](C)O)C(=O)N[C@@H](C)C(=O)N3C[C@@H](C)C[C@H]3C(=O)O[C@H]2C)cc1 [Compound 37, (S)-3-(3,5-difluorophenyl)-2-(3-(4-ethylphenyl)ureido)-N-((2S,6S,9S,11aS,17S,18S,20aS)-9-((R)-1-hydroxyethyl)-2,6,10,18-tetramethyl-5,8,11,16,20-pentaoxohexadecahydro-1H,5H,16H-dipyrrolo[2,1-c:2′,1′-l][1]oxa[4,7,10,13]tetraazacyclohexadecin-17-yl)propanamide] ({NH(4-Et-phenyl)-CO}-[Phe(3,5-F2)][aThr]P[NMeT]A[Pro(4S-Me)]; ester 2-C) | 0.024 (≈ 0.0198 µg/mL) | 350 ± 10 |  |
